Measurements published in patent publication US20050123902A1, “Human papillomavirus inhibitors” (priority 2003, published 2005).

Biological target: HPV-16 E2 protein (Human papillomavirus type 16, UniProt P03120)
Assay: Determination of dissociation constants by surface plasmon resonance (Biacore 3000, captured GST-E2 fusion)
Format: binding
Conditions: steady state model, PBST containing 2% (v/v) DMF, read-out: dissociation constant
Procedure: Surface Plasmon Resonance Instrument. Surface plasmon resonance experiments were performed with a Biacore® 3000 Biosensor (Biacore AB, Uppsala, Sweden). To keep the instrument in good working condition, a series of washing steps were performed on a weekly basis. In addition to the prescribed maintenance washes, the fluidic system was primed three times in a row with the following reagents: 0.5% (w/v) SDS, 6 M urea, 1% (v/v) acetic acid, and 0.2 M NaHCO3. When not in use, a standby program injects water at a flow rate of 5 μL/minute to prevent salt build-up in the lines or integrated fluidic cartridge. Whenever running buffer was changed, the system was primed three times in order to equilibrate the sensor chip and the instrument.
Immobilization of anti-GST Antibody. A CM5 sensor chip was docked and the system was primed three times with filtered and degassed PBST containing 5% (v/v) DMF. Affinity purified and sterile filtered goat-anti-GST IgG (0.8 mg/mL in 150 mM NaCl) from the Biacore GST kit for fusion capture was diluted to 30 μg/mL in 10 mM sodium acetate, pH 5.0 (100 μL per immobilization). Two flow cells were activated with 1:1 NHS:EDC (N-hydroxysuccinimide:[…]) for 8 minutes at a flow rate of 5 μL/min using the “surface preparation: immobilization: amine coupling” wizard application. […]

Chain of HPV-16 E2 protein (P03120 whole entry, the tested form may be a part): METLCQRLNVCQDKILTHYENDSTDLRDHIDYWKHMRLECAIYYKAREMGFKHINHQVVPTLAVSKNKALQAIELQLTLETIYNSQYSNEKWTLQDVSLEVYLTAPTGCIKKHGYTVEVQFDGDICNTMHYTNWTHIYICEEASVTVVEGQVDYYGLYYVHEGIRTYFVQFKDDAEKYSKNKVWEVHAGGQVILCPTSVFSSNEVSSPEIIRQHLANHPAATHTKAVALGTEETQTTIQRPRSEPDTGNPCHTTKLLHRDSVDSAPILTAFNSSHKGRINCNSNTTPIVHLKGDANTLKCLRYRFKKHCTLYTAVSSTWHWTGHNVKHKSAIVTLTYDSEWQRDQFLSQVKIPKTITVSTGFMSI

**Q.** How did the Kd turn out when `Cn1nnnc1SC[C@@H]1C[C@H](c2ccc(CO)cc2)O[C@H](c2ccc(CN)cc2)O1` [compound 2] was run?
**A.** Its Kd is 2.7 nM.
